Patent US12593865B2, “Member for flavor inhalation article, flavor inhalation article, phenol scavenger for flavor inhalation article, and method for producing flavor inhalation article” (Japan Tobacco Inc., priority 2019, dated 2026)

What was measured:
[1] = Distance between Hansen solubility parameter of the substance and that of phenol, HSP (phenol); assay type: physicochemical; conditions: distance to Hansen solubility parameter of phenol, 25° C.
From the text: The Hansen solubility parameter is obtained by decomposing solubility parameter δt (SP) introduced by a person into dispersion force contribution term δd between molecules, dipole interaction contribution term δp between molecules, and hydrogen bond contribution term δh between molecules, thereby extending an applicable substance to a polar substance and a substance generating hydrogen bonding. […] The relationship between the solubility parameter δt and the three contribution terms is shown in the following formula: […]
The three parameters of the dispersion force contribution term δd, the dipole interaction contribution term δp, and the hydrogen bond contribution term δh can be regarded as coordinates in a three-dimensional space with the respective parameters as axes. Since various substances have specific HSPs at a specified temperature, HSPs of these substances are represented as points at different positions in the three-dimensional space as shown in FIG. 1. The solubility (compatibility) between given substance i and another substance j is considered to be higher as distance Rij between two points represented by the following formula becomes smaller.
Accordingly, a magnitude of influence of given substance X on phenol selective filtering performance can be evaluated by obtaining a distance between a position of HSP of phenol and a position of HSP of the given substance X in the three-dimensional space. In the present specification and claims, the distance Rij obtained from the Hansen solubility parameter of phenol and the Hansen solubility parameter of the given substance X according to the above formula is defined as HSP (phenol).

[2] = Dropping point DP of the substance (JIS K2220:2013); assay type: physicochemical
Description: A substance having a dropping point (DP) of 50° C. or higher is less likely to be fluidized under relatively high temperature storage conditions, e.g., in a vending machine having a high temperature. […] Furthermore, when the phenol scavenger contains a substance that is less likely to leak out from a filter or the like, the substance is likely to remain in the filter or the like, and therefore, a member having excellent phenol selective filtering performance can be realized. […] The dropping point of the substance is preferably in a range from 50° C. to 130° C. When the dropping point of the substance is excessively high, the phenol scavenger containing the substance may not be easily carried by a filter or the like, which is not preferable. The dropping point of the substance can be measured according to JIS K2220:2013.
In general, a “dropping point” is a physical property specified for a substance that is semisolid at room temperature such as grease, but a “dropping point” herein is a physical property specified not only for a substance that is semisolid at room temperature but also for a substance that is solid at room temperature. A dropping point of a substance that is solid at room temperature is, for example, equal to its melting point.

[3] = Octanol/water partition coefficient Log P at 25° C.; conditions: for logP: n-octanol/water

| SMILES | Vapor Pressure (Pa) at 25° C. [Pa] | HSP (phenol) [1] | dropping point DP [2] [°C] | logP [3] | Partition Coefficient Log P at 25° C. ([3]; octanol/water, 25° C.) | logP (physchem) |
| --- | --- | --- | --- | --- | --- | --- |
| CC(O)CCO (centres unmarked) [1,3-butanediol] | 8 | – | – | – | – | -0.74 |
| O=C(O)c1ccccc1 [Benzoic acid, benzoic acid] | – | 5.17 | 122 | – | – | – |
| CC1=C(O)C(=O)CC1 [Cyclotene, cyclotene] | – | 5.37 | 71 | 0.22 | – | – |
| Cc1occc(=O)c1O [Maltol, maltol] | – | 6.89 | 78 | -0.26 | – | – |

Further lines, with some results ahead:

| Vapor Pressure (Pa) at 25° C. [Pa] | HSP (phenol) [1] | dropping point DP [2] [°C] | logP [3] | Partition Coefficient Log P at 25° C. ([3]; octanol/water, 25° C.) | SMILES | logP (physchem) |
| --- | --- | --- | --- | --- | --- | --- |
| – | – | – | 1.26 | – | CCOC(=O)CCC(=O)OCC [Diethyl succinate, diethyl succinate, reference compound] | – |
| – | 8 | – | – | – | CC(O)CO (centres unmarked) [Propylene glycol, propylene glycol, reference compound] | – |
| 0 | 7.18 | 4 | – | 0.25 | CC(=O)OCC(COC(C)=O)OC(C)=O [Triacetin, triacetin, reference compound] | – |
| 0 | 5.56 | 54 | 1.54 | – | COc1cc(CCC(C)=O)ccc1O [Zingerone, zingerone] | – |
